Tests used:
Assay type in all cases: in vivo
[1] = system: Mycosphaerella arachidis (Cercospora arachidicola); assay: Mycosphaerella arachidis (Cercospora arachidicola) / peanut / preventative; conditions: peanut plants cv. Georgia Green, inoculated one day after application, vs untreated control, read-out: disease control
Description: Mycosphaerella arachidis (Cercospora arachidicola)/Peanut/Preventative 3-week old peanut plants cv. Georgia Green are treated with the formulated test compound in a spray chamber. The test plants are inoculated by spraying them with a spore suspension on their lower leaf surface one day after application. After an incubation period of 4 days under a plastic hood at 23° C. and 100% rh, the test plants are kept at 23° C./20° C. (day/night) and 70% rh in a greenhouse. The percentage leaf area covered by disease is assessed when an appropriate level of disease appears on untreated check plants (12-14 days after application).

[2] = system: Botryotinia fuckeliana (Botrytis cinerea); assay: Botryotinia fuckeliana (Botrytis cinerea) / tomato / preventative (Botrytis on tomato); conditions: tomato plants cv. Roter Gnom, inoculated two days after application, vs untreated control, read-out: disease control
Description: (§1) Botryotinia fuckeliana (Botrytis cinerea)/Tomato/Preventative (Botrytis on Tomato) 4-week old tomato plants cv. Roter Gnom are treated with the formulated test compound in a spray chamber. The test plants are inoculated by spraying them with a spore suspension two days after application. The inoculated test plants are incubated at 20° C. and 95% rh in a greenhouse and the percentage leaf area covered by disease is assessed when an appropriate level of disease appears on untreated check plants (5-6 days after application).

[3] = system: Pyrenophora teres (Helminthosporium teres); assay: Pyrenophora teres (Helminthosporium teres) / barley / preventative (net blotch on barley); conditions: barley plants cv. Regina, inoculated 2 days after application, vs untreated control, read-out: disease control
Description: Pyrenophora teres (Helminthosporium teres)/Barley/Preventative (Net Blotch on Barley) 1-week old barley plants cv. Regina are treated with the formulated test compound in a spray chamber. The test plants are inoculated by spraying them with a spore suspension 2 days after application. The inoculated test plants are incubated at 20° C. and 95% rh and the percentage leaf area covered by disease is assessed when an appropriate level of disease appears on untreated check plants (5-7 days after application).

[4] = system: Plasmopara viticola; assay: Plasmopara viticola / grape / preventative (grape downy mildew); conditions: grape seedlings cv. Gutedel, inoculated one day after application, vs untreated control, read-out: disease control
Description: Plasmopara viticola/Grape/Preventative (Grape Downy Mildew)
5-week old grape seedlings cv. Gutedel are treated with the formulated test compound in a spray chamber. The test plants are inoculated by spraying a sporangia suspension on their lower leaf surface one day after application. The inoculated test plants are incubated at 22° C. and 100% rh in a greenhouse and the percentage leaf area covered by disease is assessed when an appropriate level of disease appears on untreated check plants (6-8 days after application).

[5] = system: Alternaria solani; assay: Alternaria solani / tomato / preventative (Alternaria on tomato); conditions: tomato plants cv. Roter Gnom, inoculated two days after application, vs untreated control, read-out: disease control
Description: as §1, with “Alternaria solani/Tomato/Preventative (Alternaria” for “Botryotinia fuckeliana (Botrytis cinerea)/Tomato/Preventative (Botrytis”, “22/18°” for “20°”, “C. (day/night)” for “C.”, “(5-7” for “(5-6”

[6] = system: Erysiphe necator (Uncinula necator); assay: Erysiphe necator (Uncinula necator) / grape / preventative (powdery mildew on grape); conditions: grape seedlings cv. Gutedel, inoculated 1 day after application, vs untreated control, read-out: disease control
Description: Erysiphe necator (Uncinula necator)/Grape/Preventative (Powdery Mildew on Grape) 5-week old grape seedlings cv. Gutedel are treated with the formulated test compound in a spray chamber. The test plants are inoculated by shaking plants infected with grape powdery mildew above them 1 day after application. The inoculated test plants are incubated at 24/22° C. (day/night) and 70% rh under a light regime of 14/10 h (light/dark) and the percentage leaf area covered by disease is assessed when an appropriate level of disease appears on untreated check plants (7-9 days after application).

[7] = system: Mycosphaerella graminicola (Septoria tritici); assay: Mycosphaerella graminicola (Septoria tritici) / wheat / preventative (Septoria tritici leaf spot on wheat); conditions: Zymoseptoria tritici, wheat plants cv. Riband, inoculated one day after application, vs untreated control, read-out: disease control
Description: Mycosphaerella graminicola (Septoria tritici)/Wheat/Preventative (Septoria tritici Leaf Spot on Wheat) 2-week old wheat plants cv. Riband are treated with the formulated test compound in a spray chamber. The test plants are inoculated by spraying a spore suspension on them one day after application. After an incubation period of 1 day at 22° C./21° C. (day/night) and 95% rh, the test plants are kept at 22° C./21° C. (day/night) and 70% rh in a greenhouse. The percentage leaf area covered by disease is assessed when an appropriate level of disease appears on untreated check plants (16-19 days after application).

[8] = system: Phaeosphaeria nodorum (Septoria nodorum); assay: Phaeosphaeria nodorum (Septoria nodorum) / wheat / leaf disc preventative (glume blotch); conditions: Parastagonospora nodorum, foliar, wheat leaf segments cv. Kanzler on agar, inoculated 2 days after application, vs untreated control, read-out: disease control
Description: Phaeosphaeria nodorum (Septoria nodorum)/Wheat/Leaf Disc Preventative (Glume Blotch) Wheat leaf segments cv. Kanzler are placed on agar in a multiwell plate (24-well format) and sprayed with the formulated test compound diluted in water. The leaf disks are inoculated with a spore suspension of the fungus 2 days after application. The inoculated test leaf disks are incubated at 20° C. and 75% rh under a light regime of 12 h light/12 h darkness in a climate cabinet and the activity of a compound is assessed as percent disease control compared to untreated when an appropriate level of disease damage appears in untreated check leaf disks (5-7 days after application).

Measured: pest or weed control at 200 ppm

c1ccc(-c2cccc(-c3ncc4ccccc4n3)n2)cc1 [2/1]
≥ 80%: [1] | [2]

c1cc(-c2ncc3ccccc3n2)nc(-c2cccc3ccccc23)c1 [2/6]
≥ 80%: [1] | [3] | [2] | [4] | [5]

Clc1ccccc1-c1cccc(-c2ncc3ccccc3n2)n1 [2/13]
≥ 80%: [1] | [2] | [4] | [5]

CCc1ccccc1-c1cccc(-c2ncc3ccccc3n2)n1 [2/37]
≥ 80%: [1] | [2] | [4] | [5]

Cc1ccc(C)c(-c2cccc(-c3ncc4ccccc4n3)n2)c1 [2/54]
≥ 80%: [6] | [1] | [3] | [4] | [5]

COc1ccc(Cl)cc1-c1cccc(-c2ncc3ccccc3n2)n1 [2/68]
≥ 80%: [6] | [4] | [5]

Cc1ccc(F)c(-c2nc(-c3ncc4ccccc4n3)ccc2C)c1 [3/9]
not listed: [6] | [8]
≥ 80%: all other assays above

Cc1ccc(-c2nc(-c3ncc4ccccc4n3)ccc2C)cc1Cl [3/21]
≥ 80%: [6] | [2] | [4] | [5]

Cc1ccc(F)cc1-c1nc(-c2ncc3ccccc3n2)ccc1C [3/26]
≥ 80%: [1] | [3] | [2] | [4] | [5]

Cc1ccc(-c2ncc3ccccc3n2)nc1-c1cccc(F)c1F [3/38]
not listed: [7] | [8]
≥ 80%: all other assays above

COc1ccc(-c2nc(-c3ncc4ccccc4n3)ccc2C)c(C)c1 [3/53]
not listed: [7] | [8]
≥ 80%: all other assays above

Cc1ccc(-c2ncc3ccccc3n2)nc1-c1ccc(Cl)cc1 [3/74]
≥ 80%: [3] | [7] | [4] | [5]

Cc1ccc(-c2ncc3ccccc3n2)nc1-c1ccccc1F [3/82]
≥ 80%: [3] | [7] | [4] | [5]

Cc1ccc(-c2ncc3ccccc3n2)nc1-c1ccc(F)cc1F [3/83]
≥ 80%: [3] | [7] | [2] | [4] | [5]

COc1ccc(-c2nc(-c3ncc4ccccc4n3)ccc2C)cc1C [3/93]
≥ 80%: [3] | [7] | [4] | [5]

Cc1ccc(-c2nc(-c3ncc4ccccc4n3)ccc2C)cc1F [3/94]
≥ 80%: [3] | [7] | [2] | [4] | [5]

Cc1ccc(-c2ncc3ccccc3n2)nc1-c1ccc(F)cc1O [3/101]
≥ 80%: [3] | [7] | [2] | [4] | [5]

Cc1ccc(-c2ncc3ccccc3n2)nc1Oc1ccc(F)cc1 [5/3]
≥ 80%: [1] | [3] | [4]

Cc1ccc(Cc2cccc(-c3ncc4ccccc4n3)n2)cc1 [6/10]
≥ 80%: [7]

Clc1cccc(Cc2cccc(-c3ncc4ccccc4n3)n2)c1 [6/11]
not listed: [4] | [8]
≥ 80%: all other assays above

COc1cccc(Cc2cccc(-c3ncc4ccccc4n3)n2)c1 [6/15]
≥ 80%: [3] | [7] | [4]

Clc1ccccc1Cc1cccc(-c2ncc3ccccc3n2)n1 [6/16]
not listed: [1] | [8]
≥ 80%: all other assays above

Clc1ccc(Cc2cccc(-c3ncc4ccccc4n3)n2)cc1 [6/18]
≥ 80%: [3] | [7] | [5]

Cc1ccccc1Cc1cccc(-c2ncc3ccccc3n2)n1 [6/19]
≥ 80%: [3] | [7] | [4] | [5]

Cc1ccc(-c2ncc3ccccc3n2)nc1Cc1cccc(C)c1F [7/7]
≥ 80%: [6] | [3] | [4] | [5]

Cc1ccc(-c2ncc3ccccc3n2)nc1C#CC1CC1 [8/1]
≥ 80%: [1] | [2] | [4] | [5]

Cc1cccc(-c2ncc3ccccc3n2)n1 [10/4]
≥ 80%: [6] | [1]

c1cc(-c2ncc3ccccc3n2)nc(C2CC2)c1 [10/7]
≥ 80%: [6] | [1] | [2] | [4]

Cc1ccc(-c2nc(C)c3ccccc3n2)nc1-c1ccccc1 [11/8, 4-Methyl-2-(5-methyl-6-phenyl-pyridin-2-yl)-quinazoline]
not listed: [2] | [8]
≥ 80%: all other assays above

Cc1nc(-c2cccc(Cc3ccccc3)n2)nc2ccccc12 [12/6]
≥ 80%: [8] | [6] | [5]

From patent publication US20120129875A1, “SUBSTITUTED QUINAZOLINES AS FUNGICIDES” (SYNGENTA CROP PROTECTION, LLC, priority 2009, published 2012)
